Series [1] relates to β-catenin-driven (LEF/TCF) transcriptional activity. The series can be described thus: LEF/TCF reporter assay. Format: cell-based, human. As to conditions: CD34^+/CD38^− CML and 32D-BCR/ABL cells. The method, then: LEF/TCF reporter assay. CD34+/CD38− CML cells were transduced with pBAR or pfuBAR (negative control) ®-catenin lentiviral reporter constructs (54), puromycin-selected and treated with the indicated drugs. Luciferase was measured using the Bright-Glo Luciferase system (Promega).
For orientation: Reporter assays use an easily measured gene product as a stand-in for the process of interest.

Series [2] concerns the target T1, PP2A (Homo sapiens, UniProt P67775).
T1 construct: PP2Ac assays from whole cell lysates; endogenous in cells; host or cells: CD34+/CD38- and CD34+/CD38+ primary CML and normal bone-marrow cells; immunoprecipitated with Millipore PP2Ac antibody
The conditions noted are these: Roberts et al., Cancer Res 2010; cited from earlier work.

Series [3] has as its system CML cells (CFSE^max/CD34^+, CD34^+/CD38^−, CD34^+). The series can be described thus: Annexin-V/7-AAD apoptosis staining. Format: cell-based, human. The conditions noted are these: for effect on FTY720-induced apoptosis of quiescent cells: CD34^+ CML cells, GSK-3β inhibitor with FTY720. The method, then: (§1) CFSE-mediated tracking of cell division. Carboxyfluorescein diacetate succinimidyl diester (CFSE)-stained cells (CellTrace CFSE Proliferation Kit: Invitrogen) were cultured in the presence of the indicated drugs (dosed at time zero and at day three), and the cells were harvested after 3 or 6 days in culture, and stained with anti-CD34 PE, Annexin-V V450, and the viability stain 7-AAD (BD Bioscience) to determine the number of viable quiescent cells (CFSEmax/CD34^+/7-AAD− cells) and the percentage of quiescent and apoptosis-committed cells (CFSEmax/CD34+/Annexin V+/7-AAD±). Cells were sorted into dividing and quiescent populations for Western blot analysis. For assessment of mouse quiescent leukemic HSCs, Lin- cells from 8 week-induced SCLtTA/BCR-ABL1 mice were CFSE-stained and used as described above. Quiescent cells (CFSE^max/CD34^+) were reported as a fraction of the initial number of CD34^+ cells.

For series [4], the system named is CFSE^max/CD34^+ CML cells. Description: CFSE-mediated tracking of quiescent cells, CML. Format: cell-based, human. How it is done: as §1
Series [5] has as its target S1PR1 (Homo sapiens, UniProt P21453). The series can be described thus: S1PR1 internalization. The format is cell-based.
For series [6], the system named is B lymphocytes. The series can be described thus: B-lymphopenia induction. The conditions noted are these: in vivo.
Series [7] concerns the target T1, PP2A. The series can be described thus: PP2A phosphatase assay. The format is cell-based. How it is done:
PP2A phosphatase assay. PP2Ac assays from whole cell lysates were carried out using the PP2Ac immunoprecipitation phosphatase assay kit (Millipore). Briefly, protein lysates (50 μg) in 100 μl of 20 mM Hepes. pH 7.0, 100 mM NaCl, 5 μg of PP2Ac antibody (Millipore), and 25 μl of Protein A-agarose were added to 400 μl of 50 mM Tris, pH 7.0, 100 mM CaCl2, and IPs were carried out at 4° C. for 2 h. IPs were used in the phosphatase reaction according to the manufacturer's protocol.

The test system of series [8] is normal CD34^+ progenitors. The series can be described thus: Toxicity to normal progenitors. Format: cell-based, human. The conditions noted are these: at concentrations that impair Ph^+ HSC survival.
For series [9], the system named is CML cells. The series can be described thus: Long term culture-initiating cell (LTC-IC) assay. The format is cell-based, human. The conditions noted are these: drug during first week of 6-week culture, vs untreated. How it is done: (§2) Long term culture-initiating cell (LTC-IC) and Colony-forming cell (CFC)/replating assays. 2×10^6 mononuclear CML cells were cultured with a 1:1 mixture of irradiated (80 Gy) IL-3/G-CSF-producing M2-10B4 and IL-3/KL-producing SI/SI murine fibroblasts in MyeloCult H5100 (StemCell Technologies) supplemented with hydrocortisone. Drugs were present during the first week of culture. Medium was replaced after 7 days, followed by weekly half-medium changes. After 6 weeks, adherent and floating cells were harvested and 5×10^4 cells plated into MethoCult H4435. LTC-IC-derived colonies were scored after 14 days. For CFC/replating, individual 14-day colonies from 10^3-10^5 CD34+/CD38− CML or 0.2×10^3-10^3 leukemic LSK cells plated in 0.9% H4435 or M3234 MethoCult, respectively, containing KL, G-CSF, GM-CSF, IL-3, IL-6, and Epo were replated and scored 2 weeks later.

In series [10] the test system is CD34+/CD38− CML cells. Description: CFC/replating assay, CML cells. The format is cell-based, human. The method, then:
as §2

In series [11] the test system is β-catenin. Description: β-catenin immunofluorescence. The format is cell-based, human. The conditions noted are these: CD34^+/CD38^− CML, leukemic LSK, and 32D-BCR/ABL cells. The source says: Immunofluorescence and proximity ligation assay. CD34^+/CD38^− cells from CML patient samples or LSK cells derived from induced leukemic mice were sorted, treated in liquid culture with the indicated drugs and cytospun onto glass slides. Slides were fixed in 3.7% formaldehyde, penneabilized with 0.05% Triton X-100, and stained with an Anti-®-catenin primary antibody (Cell signaling), a secondary goat F(ab′) anti-rabbit conjugated to Alexa Fluor 647, and the nuclear stain DAPI (Invitrogen); slides were mounted with Slowfade antifade reagent (Invitrogen). Microphotographs were obtained with a Zeiss LSM 510 confocal laser-scanning microscope with C-Apochromat 63/1.2 W objective. A minimum of three fields for each slide were acquired. For the Proximity Ligation Assay (PLA) CD34+/CD38− CML cells were treated, fixed, and permeabilized as described above. The slides were then simultaneously stained with a mix of mouse anti-PP2A (Millipore) and rabbit anti-SET (Globozyme) antibodies. The PLA procedure (Duolink; Olink Bioscience) was performed according to manufacturer instructions. An average of 20 z-stack ([…]) were captured with a Zeiss LSM 510 confocal laser-scanning microscope with C-Apochromat 63/1.2 W objective; at least three fields/slide were acquired. Three-dimensional projections were generated and positive signals/cell were calculated by ImageJ software (NIH).

Structures are written as SMILES. Where a name gives a salt, the structure may show the parent alone.

T1 sequence (P67775 whole entry): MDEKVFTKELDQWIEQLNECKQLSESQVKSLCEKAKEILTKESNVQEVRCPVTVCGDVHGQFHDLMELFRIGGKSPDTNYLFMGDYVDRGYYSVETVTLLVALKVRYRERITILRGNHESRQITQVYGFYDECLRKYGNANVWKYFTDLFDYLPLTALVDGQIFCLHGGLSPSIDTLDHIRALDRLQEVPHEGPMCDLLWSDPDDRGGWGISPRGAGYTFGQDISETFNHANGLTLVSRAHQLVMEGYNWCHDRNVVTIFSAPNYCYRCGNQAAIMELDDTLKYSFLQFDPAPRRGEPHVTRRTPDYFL
Chain of S1PR1 (P21453 whole entry, species assumed): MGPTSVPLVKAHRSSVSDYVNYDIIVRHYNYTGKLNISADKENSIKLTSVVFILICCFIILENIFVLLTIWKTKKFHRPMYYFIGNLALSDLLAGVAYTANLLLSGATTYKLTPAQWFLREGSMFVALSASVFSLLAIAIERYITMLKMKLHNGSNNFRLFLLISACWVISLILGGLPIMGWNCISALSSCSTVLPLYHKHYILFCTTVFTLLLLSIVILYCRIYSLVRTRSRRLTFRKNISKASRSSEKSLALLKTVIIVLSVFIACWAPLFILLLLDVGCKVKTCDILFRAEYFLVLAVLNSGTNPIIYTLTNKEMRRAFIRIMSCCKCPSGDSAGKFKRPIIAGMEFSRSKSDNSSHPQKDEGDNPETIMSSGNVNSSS

Turning to `C=C[C@@]1(C)CC(=O)[C@@H]2[C@@]3(C)CCCC(C)(C)[C@@H]3[C@H](O)[C@H](OC(C)=O)[C@@]2(C)O1` [1,9-dideoxy-forskolin], in series [1], the “β-catenin transcriptional activity (LEF/TCF luciferase)” value is reported as “markedly impaired”.

With `CCCCCCCCc1ccc(CCC(N)(CO)COP(=O)(O)O)cc1` (stereo not shown) [FTY-P], the PP2A activity induction entry in series [2] is listed as “did not induce PP2A activity”. Further, the “apoptosis of quiescent/HSC-enriched CML cells” value in series [3] (CFSE^max/CD34^+ or CD34^+/CD38^− CML cells) is reported as “failed to induce apoptosis”.

Take `[Cl-].[Li+]` [LiCl, lithium chloride]: the “effect on FTY720-induced apoptosis of quiescent cells” value in series [3] is recorded as “abrogated FTY720-induced apoptosis”.

As for `CCCC(N)(CO)CCc1ccc(OCCCCCC(C)C)cc1` (stereo not shown) [OSU-2S], in series [4] (CML n=9), the “effect on CML CFSE^max cells” value is “significantly reduced”. Moreover, the S1PR1 internalization entry in [5] was “without triggering S1PR1 internalization”. For the same compound, the B-lymphopenia result in series [6] is reported as “without triggering S1PR1 internalization or inducing B-lymphopenia”. The PP2A activation result in series [7] is given as “activated PP2A”.

Consider `Cn1cc(C2=C(c3ccc(Cl)cc3Cl)C(=O)NC2=O)c2ccccc21` [SB216763], for which the “effect on FTY720-induced apoptosis of quiescent cells” value in [3] is on record as “abrogated FTY720-induced apoptosis”.

With `Cc1cnc(Nc2ccc(OCCN3CCCC3)cc2)nc1Nc1cccc(S(=O)(=O)NC(C)(C)C)c1` [TG101348], the “toxicity to normal CD34^+ progenitors” value in series [8] is “toxicity of TG101348 to normal CD34^+ progenitors”. Moreover, the “inhibition of LTC-ICs” value in series [9] is reported as about 80%. Also, the “decrease in CFSE^max (quiescent) CML HSCs” value in series [4] (CFSE-labeled CD34^+ CML cells, FTY720 at 2.5 μM) was 50%. Further, in series [1], the “β-catenin transcriptional activity (LEF/TCF luciferase)” value is on record as “markedly impaired”. Also, the “reduction in replating efficiency” value in series [10] is reported as about 75%.

As for `Cc1ccc(NC(=O)c2ccc(CN3CCN(C)CC3)cc2)cc1Nc1nccc(-c2cccnc2)n1` [imatinib, imatinib mesylate], the β-catenin degradation entry in series [11] is recorded as “but not imatinib (n=3) induced β-catenin degradation”.

Consider `C=C1[C@@H](O)[C@@H]2O[C@]3(CC[C@H](/C=C/[C@@H](C)[C@@H]4CC(C)=C[C@@]5(O[C@H](C[C@@](C)(O)C(=O)O)CC[C@H]5O)O4)O3)CC[C@H]2O[C@@H]1[C@@H](O)C[C@H](C)[C@H]1O[C@@]2(CCCCO2)CC[C@H]1C` [okadaic acid], for which the “effect on FTY720-induced decrease of CFSE^max HSCs” value in [4] (0.25 nM okadaic acid with FTY720) is listed as “antagonized”.
